Consider 17 compounds from patent US11155539B2, “4-pyridinylmethyl-morpholine derivatives and the use thereof as medicament” (Boehringer Ingelheim International GmbH, priority 2018, dated 2021).

One series addresses Nav1.6 (Homo sapiens, UniProt Q9UQD0). As to the kind of experiment: Nav 1.6 inhibition, IonWorks Quattro electrophysiology. Particulars: for inhibition at 1 µM / inhibition at 5 µM: normalized to vehicle control (0%) and maximal inhibition control (100%); for inhibition of Nav1.6 currents (in words): reference compounds, FIG. 1 and FIG. 2. It counts as cell-based. As for the experimental part: Determination of Nav 1.6.Inhibition
IonWorks Quattro electrophysiological platform
The compounds were prepared in DMSO at 300× the final assay concentrations of 1 and 5 μM.
The 300×DMSO stock solutions were transferred into assay plates where 2 μl per well of each 300× stock solution were placed. All assay plates were stored at −80° C. until the day of assay.
On the day of the assay, the appropriate assay plate was thawed at room temperature, centrifuged, and 198 μl of external recording solution was added and mixed thoroughly. This provided a 1:100 dilution. A further 1:3 dilution occurred upon addition to the cells in the IonWorks Quattro electrophysiological platform, giving a 1:300 dilution in total. On each assay plate, at least 8 wells were reserved for vehicle control (0.3% DMSO) and at least 8 wells for each positive control specific to the cell line tested. The positive controls were tested at a maximal blocking and an approximate IC50 concentration. As positive control Lidocaine at concentrations of 30 and 1000 μM was used.
The solutions for recording Nav1.6 currents were as follows:
Amphotericin B was used to obtain electrical access to the cell interior at a final concentration of 200 μg/ml in internal recording solution.
State-dependent inhibition: Sodium channels when held at depolarized potential or long test pulse, the channels open and inactivate and then stay inactivated until the membrane potential is stepped back to hyperpolarized potentials, when the inactivated channels recover from inactivation into closed state.
Cells were held at −120 mV. In order to completely inactivate the sodium channels (pulse 1), the cells were pulsed to +0 mV for 2500 ms and stepped back to −120 mV for 10 ms (to completely recover from inactivation, however channels that had drugs bound to them will not recover from inactivation) before stepping to +0 mV for 20 ms (pulse 2).
Both the positive and vehicle control data associated with each cell line assayed are shown below as an example. The mean is shown for each positive and negative control as solid symbol with the total number of individual well replicates given next to the solid symbol. In addition, the individual data of each well are shown on the graph as open symbols so that the variation about the mean value can be readily assessed.
Shown below are the assay controls for the Nav1.6 IonWorks Quattro assay.
Tables 3 and 4 show the normalized percentage inhibition of Nav1.6 channel. […] (see also the figure Assay Control Results above).

The target in another series is T1, MDR1 (P-gp) (Homo sapiens, UniProt P08183).
T1 construct: expressed in transfected cells; host or cells: MDCKII (Madin-Darby canine kidney)
As to the kind of experiment: MDCK assay P-gp (permeability across MDCK-MDR1 monolayers). Conditions: for Papp A→B at 2 h: apical-to-basal, MDCK-MDR1 monolayers, pH 7.4; for efflux ratio at 2 h: pH 7.4, Papp (b-a) divided by Papp (a-b), MDCK-MDR1, read-out: efflux ratio PEBA/PEAB. The series is classed as in vitro ADME. The method, then: The MDCK assays provide information on the potential of a compound to pass the blood brain barrier. Permeability measurements across polarized, confluent MDCK-MDR1 cell monolayers grown on permeable filter supports are used as an in vitro absorption model: apparent permeability coefficients (PE) of the compounds across the MDCK-MDR1 cell monolayers are measured (pH 7.4, 37° C.) in apical-to-basal (AB) and basal-to-apical (BA) transport direction. The AB permeability (PEAB) represents drug absorption from the blood into the brain and the BA permeability (PEBA) drug efflux from the brain back into the blood via both, passive permeability as well as active transport mechanisms mediated by efflux and uptake transporters that are expressed on the MDCK-MDR1 cells, predominantly by the overexpressed human MDR1. Identical or similar permeabilities in both transport directions indicate passive permeation (PEBA/PEAB≤1), vectorial permeability points to additional active transport mechanisms. Higher PEBA than PEAB (PEBA/PEAB>5) indicates the involvement of active efflux mediated by MDR1, which might compromise the goal to achieve sufficient brain exposure. Therefore, this assay provides valuable support for selection of compounds applicable for further in vivo testing. High permeability not limited by efflux at the blood brain barrier is a favorable characteristic for compounds that are to be used for drugs acting primarily in the CNS.
Apparent permeability coefficients (Papp) of the compounds across the MDCK-MDR1 monolayers (MDCKII cells transfected with human MDR1 cDNA expression plasmid) are measured in apical-to-basal (AB) and basal-to-apical (BA) direction. MDCK-MDR1 cells (6×10^5 cells/cm^2) are seeded on filter inserts (Corning, Transwell, polycarbonate, 0.4 μm pore size) and cultured for 9 to 10 days. Compounds dissolved in DMSO stock solution (1-20 mM) are diluted with HTP-4 aqueous buffer (128.13 mM NaCl, 5.36 mM KCl, 1 mM MgSO4, 1.8 mM CaCl2, 4.17 mM NaHCO3, 1.19 mM Na2HPO4, 0.41 mM NaH2PO4, 15 mM HEPES, 20 mM glucose, pH 7.4) supplemented with 0.25% BSA to prepare the transport solutions (final concentration: 1 or 10 μM, final DMSO<=0.5%). The transport solution is applied to the apical or basolateral donor side for measuring A-B or B-A permeability, respectively. The receiver side contains HTP-4 buffer supplemented with 0.25% BSA. Samples are collected at the start and end of experiment from the donor and at various time intervals for up to 2 hours also from the receiver side for concentration measurement by HPLC-MS/MS (RapidFire High-throughput MS System (Agilent) coupled to QTrap 6500 (AB Sciex) or TSQ Vantage (Thermo Scientific)). Sampled receiver volumes are replaced with fresh receiver solution. Efflux ratio is calculated dividing the Papp (b-a) values by the Papp (a-b) values.

The nature of series [1]: Metabolic stability in pooled human liver microsomes. It counts as in vitro ADME. Conditions: pH 7.6, 1 μM compound, 37° C., NADPH, read-out: Half-life - t½ human liver microsomes. An excerpt: Stability in human liver microsomes refers to the susceptibility of compounds to biotransformation in the context of selecting and/or designing drugs with favorable pharmacokinetic properties. The primary site of metabolism for many drugs is the liver. Human liver microsomes contain the cytochrome P450s (CYPs), and thus represent a model system for studying drug metabolism in vitro Enhanced stability in human liver microsomes is associated with several advantages, including increased bioavailability and adequate half-life, which can enable lower and less frequent dosing of patients. Thus, enhanced stability in human liver microsomes is a favorable characteristic for compounds that are to be used for drugs.
The metabolic degradation of the test compound was assayed at 37° C. with pooled human liver microsomes. The final incubation volume of 60 μl per time point contains TRIS buffer pH 7.6 at room temperature (0.1 M), magnesium chloride (5 mM aqueous solution), microsomal protein (1 mg/mL for human) and the test compound at a final concentration of 1 μM. Following a short preincubation period at 37° C., the reactions were initiated by addition of betanicotinamide adenine dinucleotide phosphate, reduced form (NADPH, 1 mM), and terminated by transferring an aliquot into acetonitril after different time points. After centrifugation (10000 g, 5 min), an aliquot of the supernatant was assayed by HPLC-MS/MS as described above for the MDCK assay P-gp for the amount of parent compound. The half-life was determined by the slope of the semi-logarithmic plot of the concentration-time profile.
A general note: Liver microsomes are a subcellular fraction often used to study metabolism.

A further series deals with T2, NMDA NR1/NR2B receptor (Homo sapiens, UniProt Q05586+Q13224).
T2 construct: host or cells: HEK293, tetracycline-inducible expression
As to the kind of experiment: In vitro NMDA NR1/NR2B cell assay (FLIPR, intracellular calcium induced by glycine/glutamate). It counts as cell-based. Conditions: HEK293 cells expressing NMDA NR1/NR2B; 20 μM glycine, 1 μM glutamate; read-out: IC50 (in vitro NR2B affinity, FLIPR assay). The method, then:
A human HEK293 cell line with tetracyclin-inducible expression of NMDA NR1/NR2B receptor was used as a test system for compound efficacy and potency. The cell line was purchased from ChanTest, Catalog #CT6121. Compound activity was determined by measuring the effect of compounds on intracellular calcium concentration induced by glycine/glutamate agonism in a FLIPRtetra system (Molecular Devices).
The cells were obtained as frozen cells in cryo-vials and stored until use at −150° C. Cells were grown in culture medium (DMEM/F12, 10% FBS, 5 μg/mL Blasticidin, 150 μg/mL Zeozin, 500 μg/mL Geneticin). […] For sub-culturing the cells were detached from flasks by Versene. For the assay, cells were detached, washed twice with induction medium (DMEM/F12 without glutamine, 10% FBS, 2 μg/mL Tetracycline, 2 mM Ketamine) and seeded to 384 well pure coat amine plates (Becton Dickinson, 50000 cells per well in 50 μl) 48 h prior to assay in induction medium.
The test compounds were dissolved in 100% DMSO at a concentration of 10 mM and in a first step diluted in DMSO to a concentration of 5 mM, followed by serial dilution steps in 100% DMSO. Dilution factor and number of dilution steps may vary according to needs. Typically 8 different concentrations by 1:5 dilutions were prepared in duplicate, further intermediate dilutions (1:37.5) of the substances were carried out with aqueous assay buffer (137 mM NaCl, 4 mM KCl, 1.8 mM CaCl2, 10 mM HEPES, 10 mM Glucose, pH 7.4) resulting in a compound concentration 3 times above the final test concentration and DMSO at 2.7% resulting in 0.9% final DMSO concentration in the assay.
At the assay day cells were washed 3× with assay buffer (as described above), 10 μL buffer remained in the wells after washing. 10 μL Ca kit loading buffer (AAT Bioquest; prepared from the kit containing the following components: Component A: Fluo-8 NW dissolved in 200 μL DMSO and 20 μl of this solution are mixed with 10 ml buffer prepared out of component B and C, Component B: 10× Pluronic® F127 Plus diluted 1:10 in component C, Component C: HHBS (Hanks with 20 mM Hepes) was added to the cells and the plates were incubated with lid for 60 minutes at room temperature. 20 μl assay buffer containing 60 μM glycine (20 μM final) and 3 μM glutamate (1 μM final) was added to column 1-23, column 24 got assay buffer without glycine/glutamate to serve as negative unstimulated control. Fluorescence (indicating the calcium influx as a result of the NR1/NR2B ion channel activation) was read on the FLIPRtetra device for 60 seconds to monitor the glutamate induced effects. After 2 minutes 20 μL of compound dilution prepared as described above or controls (row 1-22) in assay buffer were carefully added to the wells. […] The average of 2 measurements at 5 minutes and […] 10 seconds after compound addition is calculated and further used for IC50 calculations. Each assay microtiter compound dilution plate contained wells (in column 23 or 24) with DMSO controls instead of compound as controls for glycine/glutamate induced fluorescence (high controls) and wells with 1 μM of a reference NR2B NAM as low controls (Compound 22; reference: Layton, Mark E et al, ACS Chemical Neuroscience 2011, 2(7), 352-362).
The output file of the reader contains the well number and measured average fluorescence units. For data evaluation and calculation, the measurement of the low control was set as 0% control and the measurement of the high control was set as 100% control. The IC50 values were calculated using the standard 4 parameter logistic regression formula. Calculation: [y=(a−d)/(1+(x/c)^b)+d], a=low value, d=high value; x=conc M; c=IC50 M; b=slope.
(A change in cytosolic calcium serves as a functional read-out for many receptors and channels.)

Bounds are passed on as bounds.

Sequence of Nav1.6 (Q9UQD0 whole entry): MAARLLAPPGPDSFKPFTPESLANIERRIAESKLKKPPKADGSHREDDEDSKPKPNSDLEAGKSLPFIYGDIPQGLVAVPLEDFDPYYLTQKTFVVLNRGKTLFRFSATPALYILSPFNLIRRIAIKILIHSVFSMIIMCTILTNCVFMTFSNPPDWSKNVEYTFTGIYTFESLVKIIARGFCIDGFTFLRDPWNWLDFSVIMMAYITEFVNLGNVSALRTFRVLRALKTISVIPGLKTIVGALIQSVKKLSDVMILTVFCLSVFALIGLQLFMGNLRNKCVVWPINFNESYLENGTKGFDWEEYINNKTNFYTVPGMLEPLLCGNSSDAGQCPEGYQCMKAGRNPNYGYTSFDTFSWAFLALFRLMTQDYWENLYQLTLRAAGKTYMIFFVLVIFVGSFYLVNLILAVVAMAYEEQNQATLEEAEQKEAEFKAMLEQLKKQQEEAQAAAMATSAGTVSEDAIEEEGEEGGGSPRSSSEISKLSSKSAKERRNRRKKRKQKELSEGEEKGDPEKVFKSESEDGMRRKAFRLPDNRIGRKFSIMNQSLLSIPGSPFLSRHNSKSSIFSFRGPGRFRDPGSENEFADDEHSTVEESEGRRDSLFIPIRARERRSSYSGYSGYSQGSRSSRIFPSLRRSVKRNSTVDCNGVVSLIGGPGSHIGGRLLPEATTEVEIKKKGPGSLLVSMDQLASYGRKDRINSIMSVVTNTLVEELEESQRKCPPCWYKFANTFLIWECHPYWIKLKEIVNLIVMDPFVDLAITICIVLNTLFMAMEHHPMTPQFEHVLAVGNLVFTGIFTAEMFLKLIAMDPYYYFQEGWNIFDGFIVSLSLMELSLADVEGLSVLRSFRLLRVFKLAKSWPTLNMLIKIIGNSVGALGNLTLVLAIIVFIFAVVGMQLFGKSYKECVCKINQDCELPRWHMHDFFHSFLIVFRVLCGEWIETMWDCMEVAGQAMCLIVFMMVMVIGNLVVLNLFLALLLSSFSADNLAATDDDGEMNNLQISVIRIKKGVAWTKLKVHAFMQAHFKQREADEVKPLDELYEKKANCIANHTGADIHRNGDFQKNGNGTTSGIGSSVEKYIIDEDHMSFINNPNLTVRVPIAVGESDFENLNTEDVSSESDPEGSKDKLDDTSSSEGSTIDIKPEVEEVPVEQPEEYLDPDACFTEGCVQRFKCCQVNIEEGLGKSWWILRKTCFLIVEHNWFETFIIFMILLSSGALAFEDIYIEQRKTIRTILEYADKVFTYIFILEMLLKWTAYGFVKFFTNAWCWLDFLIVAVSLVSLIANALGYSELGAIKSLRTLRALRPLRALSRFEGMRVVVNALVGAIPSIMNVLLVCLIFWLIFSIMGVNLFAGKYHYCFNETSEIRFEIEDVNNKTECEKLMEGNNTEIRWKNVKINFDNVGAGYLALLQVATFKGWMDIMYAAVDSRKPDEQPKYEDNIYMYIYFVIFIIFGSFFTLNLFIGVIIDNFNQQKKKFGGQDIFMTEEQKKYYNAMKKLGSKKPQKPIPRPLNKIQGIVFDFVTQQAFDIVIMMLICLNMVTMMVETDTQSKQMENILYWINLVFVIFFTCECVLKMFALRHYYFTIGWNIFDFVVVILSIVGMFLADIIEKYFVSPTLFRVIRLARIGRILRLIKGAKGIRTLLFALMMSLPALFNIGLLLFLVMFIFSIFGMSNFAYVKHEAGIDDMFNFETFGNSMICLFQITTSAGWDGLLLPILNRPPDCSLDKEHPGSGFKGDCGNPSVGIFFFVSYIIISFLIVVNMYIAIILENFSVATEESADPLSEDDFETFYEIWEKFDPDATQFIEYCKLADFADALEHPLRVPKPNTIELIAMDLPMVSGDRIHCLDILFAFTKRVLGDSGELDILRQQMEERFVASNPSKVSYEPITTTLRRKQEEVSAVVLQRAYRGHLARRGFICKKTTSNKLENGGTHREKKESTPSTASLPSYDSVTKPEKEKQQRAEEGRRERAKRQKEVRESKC
T1 sequence (P08183 whole entry): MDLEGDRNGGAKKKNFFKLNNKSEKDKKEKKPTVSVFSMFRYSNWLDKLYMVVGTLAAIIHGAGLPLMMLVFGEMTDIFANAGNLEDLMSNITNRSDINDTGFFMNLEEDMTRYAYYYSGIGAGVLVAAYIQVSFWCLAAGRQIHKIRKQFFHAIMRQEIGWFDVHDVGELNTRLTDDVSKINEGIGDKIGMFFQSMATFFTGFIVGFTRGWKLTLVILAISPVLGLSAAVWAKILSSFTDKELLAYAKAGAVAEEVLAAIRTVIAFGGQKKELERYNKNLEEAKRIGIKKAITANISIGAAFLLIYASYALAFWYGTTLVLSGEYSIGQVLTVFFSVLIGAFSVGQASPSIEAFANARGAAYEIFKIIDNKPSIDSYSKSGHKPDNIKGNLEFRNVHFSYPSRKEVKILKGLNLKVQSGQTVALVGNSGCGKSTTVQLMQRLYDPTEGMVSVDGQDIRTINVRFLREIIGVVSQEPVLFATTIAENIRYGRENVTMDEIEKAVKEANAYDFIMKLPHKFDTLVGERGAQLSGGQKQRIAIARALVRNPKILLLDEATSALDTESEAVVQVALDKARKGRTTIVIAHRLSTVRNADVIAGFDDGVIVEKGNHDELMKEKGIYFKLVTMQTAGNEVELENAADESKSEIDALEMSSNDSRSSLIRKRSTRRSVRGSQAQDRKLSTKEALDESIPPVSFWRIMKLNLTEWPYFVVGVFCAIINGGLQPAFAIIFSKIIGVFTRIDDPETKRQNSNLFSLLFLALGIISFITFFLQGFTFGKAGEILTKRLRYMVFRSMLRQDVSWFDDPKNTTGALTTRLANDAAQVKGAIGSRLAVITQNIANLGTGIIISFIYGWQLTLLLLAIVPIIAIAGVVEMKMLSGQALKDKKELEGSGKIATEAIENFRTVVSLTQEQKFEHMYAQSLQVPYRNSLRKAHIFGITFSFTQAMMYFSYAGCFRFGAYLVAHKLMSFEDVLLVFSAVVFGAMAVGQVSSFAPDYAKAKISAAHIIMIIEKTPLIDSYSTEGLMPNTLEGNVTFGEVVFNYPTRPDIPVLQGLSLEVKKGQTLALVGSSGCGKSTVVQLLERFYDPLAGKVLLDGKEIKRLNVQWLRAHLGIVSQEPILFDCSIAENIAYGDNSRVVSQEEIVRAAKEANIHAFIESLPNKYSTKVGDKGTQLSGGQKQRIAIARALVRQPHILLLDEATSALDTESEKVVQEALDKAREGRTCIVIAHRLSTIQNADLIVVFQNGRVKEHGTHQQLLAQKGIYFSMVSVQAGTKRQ
T2 sequence (Q13224 27-1484, other chains not shown): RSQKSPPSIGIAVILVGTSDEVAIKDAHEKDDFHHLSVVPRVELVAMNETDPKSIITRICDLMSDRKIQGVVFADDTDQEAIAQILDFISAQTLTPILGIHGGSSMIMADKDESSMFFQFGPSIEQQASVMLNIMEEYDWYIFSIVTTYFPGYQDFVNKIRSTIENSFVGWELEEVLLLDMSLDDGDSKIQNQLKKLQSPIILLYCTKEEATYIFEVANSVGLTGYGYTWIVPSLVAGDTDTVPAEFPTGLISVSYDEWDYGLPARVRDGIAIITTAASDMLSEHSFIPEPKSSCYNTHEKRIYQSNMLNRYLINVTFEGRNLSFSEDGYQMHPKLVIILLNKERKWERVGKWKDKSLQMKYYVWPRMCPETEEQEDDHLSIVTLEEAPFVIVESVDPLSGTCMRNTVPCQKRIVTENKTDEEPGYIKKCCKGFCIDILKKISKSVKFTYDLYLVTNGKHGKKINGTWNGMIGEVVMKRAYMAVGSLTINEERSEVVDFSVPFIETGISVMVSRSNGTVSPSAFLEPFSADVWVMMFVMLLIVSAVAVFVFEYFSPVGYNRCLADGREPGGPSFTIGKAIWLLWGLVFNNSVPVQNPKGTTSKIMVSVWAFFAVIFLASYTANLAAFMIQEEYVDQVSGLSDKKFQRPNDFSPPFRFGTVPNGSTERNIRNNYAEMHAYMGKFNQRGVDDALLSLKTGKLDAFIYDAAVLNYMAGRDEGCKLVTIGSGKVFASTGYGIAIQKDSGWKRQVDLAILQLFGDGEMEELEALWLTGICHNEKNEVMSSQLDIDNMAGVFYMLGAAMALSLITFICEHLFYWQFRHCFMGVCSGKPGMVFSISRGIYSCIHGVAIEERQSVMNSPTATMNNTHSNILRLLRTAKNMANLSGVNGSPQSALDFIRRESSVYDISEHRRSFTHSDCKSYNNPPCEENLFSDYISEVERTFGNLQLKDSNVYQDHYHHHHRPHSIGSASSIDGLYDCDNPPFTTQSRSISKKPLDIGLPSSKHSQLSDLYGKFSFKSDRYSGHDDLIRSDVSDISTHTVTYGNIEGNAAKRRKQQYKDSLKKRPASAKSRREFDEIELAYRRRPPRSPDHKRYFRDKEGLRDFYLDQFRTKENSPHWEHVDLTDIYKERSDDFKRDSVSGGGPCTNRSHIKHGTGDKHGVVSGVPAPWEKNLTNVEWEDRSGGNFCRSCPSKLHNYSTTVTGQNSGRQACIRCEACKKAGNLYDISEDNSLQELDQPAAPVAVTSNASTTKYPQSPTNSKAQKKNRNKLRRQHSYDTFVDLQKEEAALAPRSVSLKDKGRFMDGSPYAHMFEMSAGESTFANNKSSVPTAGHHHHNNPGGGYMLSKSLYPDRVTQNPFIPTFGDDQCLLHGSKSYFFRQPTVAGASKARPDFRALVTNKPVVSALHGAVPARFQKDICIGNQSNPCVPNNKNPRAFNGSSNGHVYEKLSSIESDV

In the case of `CNC(=O)C1CN(Cc2ccc(Oc3ccc(F)cc3F)nc2)CCO1` (centres unmarked) [Example 11], at Nav1.6, the inhibition at 1 µM is 4.2% and the inhibition at 5 µM was -3.6%. At MDR1 (P-gp), the apical-to-basolateral permeability (Papp A→B) at 2 h stood at 72 ×10⁻⁶ cm/s and the efflux ratio at 2 h was 0.6. Moreover, the half-life at 1 μM in series [1] was above 2.17 h. As to `CNC(=O)C1CN(Cc2ccc(Oc3ccc(C)cc3C)nc2)CCO1` (centres unmarked) [Example 13], at Nav1.6, the inhibition at 1 µM is -3.1% and the inhibition at 5 µM was -1.8%. Also, on MDR1 (P-gp), the Papp A→B at 2 h is 45 ×10⁻⁶ cm/s and the efflux ratio at 2 h stood at 1. In addition, in series [1], the half-life at 1 μM is above 2.17 h.

With `CNC(=O)[C@@H]1CN(Cc2ccc(Oc3ccc(Cl)cc3)nc2)CCO1` [Example 16], on NMDA NR1/NR2B receptor, the half-inhibitory concentration (IC50) came out at 205 nM. On the same count and under the same terms, for `CNC(=O)[C@@H]1CN(Cc2ccc(Oc3cc(F)ccc3Cl)nc2)CCO1` [Example 41] the value was 286 nM; for `CNC(=O)[C@@H]1CN(Cc2ccc(Oc3ccc(F)cc3F)nc2)CCO1` [Example 11], 103 nM; for `CNC(=O)[C@@H]1CN(Cc2ccc(Oc3ccccc3)nc2)CCO1` [Example 36], 353 nM. Same read-out and setting: then `CNC(=O)[C@@H]1CN(Cc2ccc(Oc3ccc(Cl)cc3F)nc2)CCO1` [Example 15], with 69 nM. `CCN(CC)CC(=O)Nc1c(C)cccc1C` [Lidocaine, reference compound]: the inhibition at 1000 µM on Nav1.6 (read-out: maximum inhibition at P1 (not normalized)) was in the range of 46.4 to 47.2%. Moreover, the “inhibition of Nav1.6 currents (in words)” value at Nav1.6 was “inhibited evoked currents in a concentration and use dependent manner”. Take `CNC(=O)[C@@H]1CN(Cc2ccc(Oc3ccc(C)cc3F)nc2)CCO1` [Example 12]: the 50% inhibitory concentration (IC50) on NMDA NR1/NR2B receptor is 117 nM. Regarding `CNC(=O)[C@@H]1CN(Cc2ccc(Oc3ccccc3)cn2)CCO1` [Example 35], the IC50 on NMDA NR1/NR2B receptor was determined as 457 nM. Still for that read-out and setting: for `CNC(=O)[C@@H]1CN(Cc2ccc(Oc3cc(F)ccc3F)nc2)CCO1` [Example 40] the value was 452 nM.

With `CNC(=O)[C@@H]1CN(Cc2ccc(Oc3ccc(C)cc3C)nc2)CCO1` [Example 13], at NMDA NR1/NR2B receptor, the 50% inhibitory concentration (IC50) came to 442 nM. Same read-out and setting: then `CNC(=O)[C@@H]1CN(Cc2ccc(Oc3ccc(F)cc3)nc2)CCO1` [Example 14], with 198 nM. On the same count and under the same terms, for `CNC(=O)[C@@H]1CN(Cc2ccc(Oc3c(F)cccc3F)cn2)CCO1` [Example 39] the value was 282 nM; for `CNC(=O)[C@@H]1CN(Cc2ccc(Oc3c(F)cccc3F)nc2)CCO1` [Example 37], 203 nM. Still for that read-out and setting: for `CNC(=O)[C@@H]1CN(Cc2ccc(Oc3c(C)cccc3F)nc2)CCO1` [Example 38] the value was 419 nM.

As for `CCCCNc1ccc(C(=O)OCCN(C)C)cc1` [Tetracaine, reference compound], the “inhibition of Nav1.6 currents (in words)” value at Nav1.6 is listed as “much stronger at depolarized potentials than at hyperpolarized potential”.

In general, inhibition refers to the relative decrease from the control value, in per cent. A word on the Papp A→B: it is how fast a substance crosses the layer from the apical side. Lower therefore signals slow passage. For orientation: half-life means the time needed for the level to fall by half in the phase considered. As usually defined, the IC50 is the concentration that inhibits the measured activity by half.
